Measured values: patent publication US4250176A, “Piperazine derivatives” (priority 1979, dated 1981)
In brackets after ≈: the same amount, converted by molar mass. Where a name gives a salt, the structure may show the parent alone. Read-outs that look alike come from different tables or passages of the source.

Legend:
[1] = test system: histamine paw oedema in guinea pigs; experiment: Histamine paw oedema in guinea pigs; format: in vivo, guinea pig; settings: Cavia porcellus, oral dose giving paw reaction below 10 units 10 minutes after 50 μg histamine s.p., 2 hours after dosing, read-out: Anaphylaxis in guinea pigs oral effective dose in mg/kg: Histamine oedema
Description: Guinea pigs, weighing between 400 and 500 g, are sensitized to ovalbumin by subplantar (s.p.) injection of 0.05 ml of antiserum in the left hind paw. The animals are then starved and orally treated, 24 hours after the sensitization, with saline (=control animals) or a particular dose of the compound under investigation. The histamine injection (at a dose of 50 μg) was given s.p. in the right hind paw 2 hours after the oral pretreatment with the compound.

[2] = test system: Guinea-pig ileum strips, histamine-induced contraction; experiment: Anti-histamine activity in "vitro": histamine-induced spasms of guinea-pig ileum strips; format: cell-based; settings: Cavia porcellus, 5 min, histamine 0.5 mg/liter, 5 minutes incubation, concentration giving significant inhibition (50%) of the contraction
Description: The histamine--(0.5 mg/liter) induced spasms are recorded Kymographically with an isotonic lever giving a 5-fold magnification.

[3] = test system: Guinea pigs sensitized to ovalbumin (anaphylactic shock); experiment: Anaphylaxis in guinea pigs: protection against death after ovalbumin challenge (survival); format: in vivo, guinea pig; settings: Cavia porcellus, estimated ED50, oral, protection against death after i.v. 0.6 mg ovalbumin, read-out: Anaphylaxis in guinea pigs oral effective dose in mg/kg: Survival
Description: The anti-anaphylactic and antihistaminic effects of the subject compounds (I) and salts thereof are studied "in vivo" in guinea pigs.
Guinea pigs, weighing between 400 and 500 g, are sensitized to ovalbumin by subplantar (s.p.) injection of 0.05 ml of antiserum in the left hind paw. The animals are then starved and orally treated, 24 hours after the sensitization, with saline (=control animals) or a particular dose of the compound under investigation.
The histamine injection (at a dose of 50 μg) was given s.p. in the right hind paw 2 hours after the oral pretreatment with the compound. The diameters of both hind paws are first measured before the histamine injection is given and again 10 minutes thereafter. The animals are challenged intravenously with 0.6 mg of ovalbumin 30 minutes after the histamine injection. All control animals develop typical primary anaphylactic shock symptoms (coughing, difficult breathing, convulsions) and 85% of these control animals die within 15 minutes after the ovalbumin injection. Protection against death is used as the criterion for possible drug effects and the estimated ED50 -value, i.e. the oral dose whereby the protection is observed in 50% of the guinea pigs, is listed in the tables below.

[4] = Table I-a, read-out: Histamine in "vitro" (ileum) effective conc.
[5] = Table I-b, read-out: Histamine in "vitro" (ileum) effective conc.

Structure (SMILES)	minimal effective dose ([1]; Table I-a) [mg/kg]	IC50 [2, 4] [µg/mL]	ED50 ([3]; Table I-a) [mg/kg]	minimal effective dose ([1]; Table I-b) [mg/kg]	IC50 [2, 5] [µg/mL]	ED50 ([3]; Table I-b) [mg/kg]	also measured
Cn1c(=O)n(CCCN2CCN(C(c3ccccc3)c3ccccc3)CC2)c2ccccc21 [1-{3-[4-(diphenylmethyl)-1-piperazinyl]propyl}-1,3-dihydro-3-methyl-2H-benzimidazol-2-one dihydrochloride. hydrate]	2.5	0.01	1.25	–	–	–	–
O=c1[nH]c2cc(C(F)(F)F)ccc2n1CCCN1CCN(C(c2ccccc2)c2ccccc2)CC1 [1-{3-[4-(diphenylmethyl)-1-piperazinyl]propyl}-1,3-dihydro-5-(trifluoromethyl)-2H-benzimidazol-2-one]	0.31	0.02 (≈ 0.0404 µM)	0.31	–	–	–	–
Cc1ccc2c(c1)[nH]c(=O)n2CCCN1CCN(C(c2ccccc2)c2ccccc2)CC1 [1-{3-[4-(diphenylmethyl)-1-piperazinyl]propyl}-1,3-dihydro-5-methyl-2H-benzimidazol-2-one]	0.16	0.01 (≈ 0.0227 µM)	0.08	–	–	–	–
Cc1ccc2[nH]c(=O)n(CCCN3CCN(C(c4ccccc4)c4ccccc4)CC3)c2c1 [1-{3-[4-(diphenylmethyl)-1-piperazinyl]propyl}-1,3-dihydro-6-methyl-2H-benzimidazol-2-one]	0.31	0.01 (≈ 0.0227 µM)	0.16	–	–	–	–
O=c1[nH]c2ccccc2n1CCCCN1CCC(OC(c2ccccc2)c2ccccc2)CC1 [1-{4-[4-(diphenylmethoxy)-1-piperidinyl]butyl}-1,3-dihydro-2H-benzimidazol-2-one]	–	–	–	–	–	–	minimal effective dose ([1]; Table I-d): 0.31 mg/kg; IC50 ([2]; Table I-d, read-out: Histamine in "vitro" (ileum) effective dose): 0.005 µg/mL (≈ 0.011 µM); ED50 ([3]; Table I-d): 0.63 mg/kg
c1ccc(C(c2ccccc2)N2CCN(CCCn3c(C4CCCCC4)nc4ccccc43)CC2)cc1 [2-cyclohexyl-1-{3-[4-(diphenylmethyl)-1-piperazinyl]propyl}-1H-benzimidazole]	–	–	–	2.5	≥ 0.16	2.5	–
O=C(O)Cn1c(=O)n(CCCN2CCN(C(c3ccccc3)c3ccccc3)CC2)c2ccccc21 [3-{3-[4-(diphenylmethyl)-1-piperazinyl]-propyl}-2,3-dihydro-2-oxo-1H-benzimidazole-1-acetic acid hemihydrate]	< 2.5	0.08	< 2.5	–	–	–	–
O=c1[nH]c2cc(Cl)c(Cl)cc2n1CCCN1CCN(C(c2ccccc2)c2ccccc2)CC1 [5,6-dichloro-1-{3-[4-(diphenylmethyl)-1-piperazinyl]propyl}-1,3-dihydro-2H-benzimidazol-2one]	2.5	≥ 0.16	2.5	–	–	–	–
O=c1[nH]c2cc(Cl)ccc2n1CCN1CCN(C(c2ccccc2)c2ccccc2)CC1 [5-chloro-1-{2-[4-(diphenylmethyl)-1-piperazinyl]ethyl}-1,3-dihydro-2H-benzimidazol-2-one]	1.25	0.01 (≈ 0.0224 µM)	0.63	–	–	–	–
O=c1[nH]c2cc(Cl)ccc2n1CCCN1CCN(C(c2ccccc2)c2ccccc2)CC1 [5-chloro-1-{3-[4-(diphenylmethyl)-1-piperazinyl]propyl}-1,3-dihydro-2H-benzimidazol-2-one]	1.25	0.01 (≈ 0.0217 µM)	0.63	–	–	–	–
O=c1[nH]c2ccc(Cl)cc2n1CCN1CCN(C(c2ccccc2)c2ccccc2)CC1 [6-chloro-1-{2-[4-(diphenylmethyl)-1-piperazinyl]ethyl}-1,3-dihydro-2H-benzimidazol-2-one]	2.5	0.02 (≈ 0.0447 µM)	2.5	–	–	–	–
O=c1[nH]c2ccc(Cl)cc2n1CCCN1CCN(C(c2ccccc2)c2ccccc2)CC1 [6-chloro-1-{3-[4-(diphenylmethyl)-1-piperazinyl]propyl}-1,3-dihydro-2H-benzimidazol-2-one]	0.63	0.04 (≈ 0.0868 µM)	0.63	–	–	–	–
O=c1[nH]c2ccccc2n1CCN1CCN(C(c2ccccc2)c2ccccc2)CC1 [I-a: L=H, R1=H, R2=H, (CH2)2, R6=H, R7=H, 1-{2-[4-(diphenylmethyl)-1-piperazinyl]ethyl}-1,3-dihydro-2H-benzimidazol-2-one]	1.25	0.01 (≈ 0.0242 µM)	0.63	–	–	–	–
O=c1[nH]c2ccccc2n1CCCN1CCN(C(c2ccccc2)c2ccccc2)CC1 [I-a: L=H, R1=H, R2=H, (CH2)3, R6=H, R7=H, 1-{3-[4-(diphenylmethyl)-1-piperazinyl]propyl}-1,3-dihydro-2H-benzimidazol-2-one]	0.31	0.005 (≈ 0.0117 µM)	0.1	–	–	–	–
O=c1[nH]c2ccccc2n1CCCCN1CCN(C(c2ccccc2)c2ccccc2)CC1 [I-a: L=H, R1=H, R2=H, (CH2)4, R6=H, R7=H, 1-{4-[4-(diphenylmethyl)-1piperazinyl]butyl}-1,3-dihydro-2H-benzimidazol-2-one]	0.31	0.01 (≈ 0.0227 µM)	0.16	–	–	–	–
O=c1[nH]c2ccccc2n1CCCCCN1CCN(C(c2ccccc2)c2ccccc2)CC1 [I-a: L=H, R1=H, R2=H, (CH2)5, R6=H, R7=H, 1-{5-[4-(diphenylmethyl)-1-piperazinyl]pentyl-1,3-dihydro-2H-benzimidazol-2-one dihydrochloride.hydrate]	2.5	0.01	0.63	–	–	–	–
O=c1[nH]c2ccccc2n1CCCCCCN1CCN(C(c2ccccc2)c2ccccc2)CC1 [I-a: L=H, R1=H, R2=H, (CH2)6, R6=H, R7=H, 1-{6-[4-(diphenylmethyl)-1-piperazinyl]hexyl}-1,3-dihydro-2H-benzimidazol-2-one]	2.5	0.01 (≈ 0.0213 µM)	1.25	–	–	–	–
CCc1nc2ccccc2n1CCCN1CCN(C(c2ccccc2)c2ccccc2)CC1 [I-b: M=C2H5, R1=H, (CH2)3, R6=H, R7=H, 1-{3-[4-(diphenylmethyl)-1-piperazinyl]propyl}-2-ethyl-1H-benzimidazole trihydrochloride.hydrate]	–	–	–	2.5	0.01	2.5	–
Cc1nc2ccccc2n1CCCN1CCN(C(c2ccccc2)c2ccccc2)CC1 [I-b: M=CH3, R1=H, (CH2)3, R6=H, R7=H, 1-{3-[4-(diphenylmethyl)-1-piperazinyl]propyl}-2-methyl-1H-benzimidazole]	–	–	–	2.5	0.02 (≈ 0.0471 µM)	2.5	–
Cc1nc2ccccc2n1CCCCN1CCN(C(c2ccccc2)c2ccccc2)CC1 [I-b: M=CH3, R1=H, (CH2)4, R6=H, R7=H, 1-{4-[4-(diphenylmethyl)-1-piperazinyl]butyl}-2-methyl-1H-benzimidazole]	–	–	–	1.25	0.005 (≈ 0.0114 µM)	1.25	–
CSc1nc2ccccc2n1CCCN1CCN(C(c2ccccc2)c2ccccc2)CC1 [I-b: M=CH3S, R1=H, (CH2)3, R6=H, R7=H, 1-{3-[4-(diphenylmethyl)-1piperazinyl]propyl}-2-(methylthio)-1H-benzimidazole trihydrochloride.hydrate]	–	–	–	1.25	0.16	1.25	–
Nc1nc2ccccc2n1CCCN1CCN(C(c2ccccc2)c2ccccc2)CC1 [I-b: M=H2N, R1=H, (CH2)3, R6=H, R7=H, 1-{3-[4-(diphenylmethyl)-1-piperazinyl]propyl}-1H-benzimidazol-2-amine]	–	–	–	2.5	≤ 0.16	2.5	–
c1ccc(C(c2ccccc2)N2CCN(CCn3cnc4ccccc43)CC2)cc1 [I-b: M=H, R1=H, (CH2)2, R6=H, R7=H, 1-{2-[4-(diphenylmethyl)-1-piperazinyl]ethyl}-1H-benzimidazole]	–	–	–	1.25	0.005 (≈ 0.0126 µM)	1.25	–
Cl.Cl.Cl.Clc1ccccc1C(c1ccccc1)N1CCN(CCCn2cnc3ccccc32)CC1.O.O (stereo not drawn) [I-b: M=H, R1=H, (CH2)3, R6=2-Cl, R7=H, 1-[3-{4-[(2-chlorophenyl)phenylmethyl]-1-piperazinyl}propyl]1H-benzimidazole trihydrochloride dihydrate]	–	–	–	1.25	0.01	1.25	–
